Three compounds from patent US9079888B2, “Compounds as histamine H3 receptor ligands” (Suven Life Sciences Limited, priority 2011, dated 2015) can be followed below.

Structures are written as SMILES. Read-outs that look alike come from different tables or passages of the source.

For one data set, the system named is Male Wister rats. Put plainly: Object Recognition Task Model. It is filed as in vivo. To be noted: rat; for Exploration time mean ± S.E.M, Familiar object / Exploration time mean ± S.E.M, Novel object: choice trial T2 24 h after T1. Here is the method:
(§1) The cognition enhancing properties of compounds of this invention were estimated by using this model.
Male Wister rats (230-280 grams) obtained from N. I. N. (National Institute of Nutrition, Hyderabad, India) was used as experimental animals. Four animals were housed in each cage. Animals were kept on 20% food deprivation before one day and given water ad libitum throughout the experiment and maintained on a 12 hours light/dark cycle. Also the rats were habituated to individual arenas for 1 hour in the absence of any objects.
One group of 12 rats received vehicle (1 mL/Kg) orally and another set of animals received compound of the formula (I) either orally or i.p., before one hour of the familiar (T1) and choice trial (T2).
The experiment was carried out in a 50×50×50 cm open field made up of acrylic. In the familiarization phase, (T1), the rats were placed individually in the open field for 3 minutes, in which two identical objects (plastic bottles, 12.5 cm height×5.5 cm diameter) covered in yellow masking tape alone (a1 and a2) were positioned in two adjacent corners, 10 cms from the walls. After 24 hours of the (T1) trial for long-term memory test, the same rats were placed in the same arena as they were placed in T1 trial. Choice phase (T2) rats were allowed to explore the open field for 3 minutes in presence of one familiar object (a3) and one novel object (b) (Amber color glass bottle, 12 cm high and 5 cm in diameter). Familiar objects presented similar textures, colors and sizes. During the T1 and T2 trial, explorations of each object (defined as sniffing, licking, chewing or having moving vibrissae whilst directing the nose towards the object at a distance of less than 1 cm) were recorded separately by stopwatch. Sitting on an object was not regarded as exploratory activity, however, it was rarely observed.
T1 is the total time spent exploring the familiar objects (a1+a2).
T2 is the total time spent exploring the familiar object and novel object (a3+b).
The object recognition test was performed as described by Ennaceur, A., Delacour, J., 1988, A new one-trial test for neurobiological studies of memory in rats—Behavioural data, Behay. Brain Res., 31, 47-59.

A short description of another data set: in vivo. Particulars: male, Wistar, rat, po, 3 mg/kg.
Data set [1] is described as follows: Rodent Brain Penetration Study. It is filed as in vivo, Male Wister rats. Particulars: brain / whole blood; Wistar/Male rat, Per Oral, 3 mg/kg, vehicle water; read-out: Brain Penetration Ratio (Cbrain/Cblood). Here is the method:
Three animals were housed in each cage. Animals were given water and food ad libitum throughout the experiment, and maintained on a 12 hours light/dark cycle.
New chemical entity (NCE) was dissolved in suitable vehicle and administered orally (3 or 10 mg/kg). […] Blood and brain tissue were collected and brain was homogenized to yield 20% w/v. Blood was stored at 2-8° C. and brain homogenate was frozen at −20° C. until analysis. The concentrations of NCE in blood and brain were quantified using LC-MS/MS method.
Extents of brain-blood ratio were calculated (Cbrian/Cblood)

For data set [2] the following is noted: male, Wistar, rat, in vivo.
Protocol: (§2) Male Wistar rats (230-280 grams) obtained from NIN (National Institute of Nutrition, Hyderabad, India) were used as an experimental animal. Three animals were housed in each cage. Animals were kept fasted over night and maintained on a 12 hours light/dark cycle. Three rats were dosed New chemical entity (NCE) orally (3 or 10 mg/kg) and intravenously (1 or 5 mg/kg) on day 0 and day 2.
(§3) At each time point blood was collected by jugular vein. Blood was stored at 2-8° C. until analysis. The concentrations of the NCE compound in blood were determined using LC-MS/MS method. Schedule time points: Pre dose 0.08, 0.25, 0.5, 1, 2, 4, 6, 8 and 24 hours after dosing (n=3). The NCE compounds were quantified in blood by partially validated LC-MS/MS method using acetonitrile precipitation technique. […] Study samples were analyzed using calibration samples in the batch and quality control samples spread across the batch.
(§4) Pharmacokinetic parameters were calculated by non-compartmental model using software WinNonlin version 5.0.1.
The test system of data set [3] is Scopolamine Induced amnesia. Description: Morris Water Maze. It is filed as in vivo, rats. Particulars: rat, active dose p.o. How it is done: as §1
The water maze apparatus consisted of a circular pool (1.8 m diameter, 0.6 m high) constructed in black Perspex (TSE systems, Germany) filled with water (24±2° C.) and positioned underneath a wide-angled video camera to track animal. The 10 cm^2 perspex platform, lying 1 cm below the water surface, was placed in the centre of one of the four imaginary quadrants, which remained constant for all rats. The black Perspex used in the construction of the maze and platform offered no intramaze cues to guide escape behavior. By contrast, the training room offered several strong extramaze visual cues to aid the formation of the spatial map necessary for escape learning. An automated tracking system, [Videomot 2 (5.51), TSE systems, Germany] was employed. This program analyzes video images acquired via a digital camera and an image acquisition boards that determined path length, swim speed and the number of entries and duration of swim time spent in each quadrant of the water maze.

For data set [4], the target named is Human or Rat Histamine H3 Receptor. Description: Binding assay for human or rat Histamine H3 receptor ([3H] R-α-methylhistamine displacement). Particulars: radioligand [3H] R-α-methylhistamine 3.0 nM; receptor source rat brain frontal cortex or recombinant human cDNA in CHO cells (table does not say which). How it is done:
The reaction was terminated by rapid vacuum filtration onto the glass fiber filters. Radioactivity trapped onto the filters was determined and compared to the control values in order to ascertain any interactions of the test compound(s) with either cloned human or rat receptor binding site.

Data set [5] can be described thus: Rodent Pharmacokinetic Study. Particulars: male, Wistar, rat, whole blood.
Protocol: as §2, §3, §4

Protocol for in vivo: as §2, §3, §4

Take `Cl.Cl.O=C(CN1CCOCC1)Nc1ccc(OC2CCN(C3CCC3)CC2)cc1` [Example 1, N-[4-(1-Cyclobutylpiperidin-4-yloxy)phenyl]-2-(morpholin-4-yl)-acetamide dihydrochloride]: in the data set on Male Wister rats (0.3 mg/kg p.o.), the Inference entry was “Active”; the “Exploration time mean ± S.E.M, Familiar object” value worked out at 5.56 ± 0.81 s; the “Exploration time mean ± S.E.M, Novel object” value turned out to be 15.36 ± 1.74 s. In the data set “in vivo”, the peak concentration (Cmax) (in general, the highest concentration seen after dosing) was found to be 349 ± 35 ng/mL; the Tmax (commonly the time at which the peak concentration occurs) was 25.2 ± 8.4 min; the bioavailability (usually dose-corrected exposure relative to a reference, in per cent) came out at 79 ± 11%. In addition, the Kp in data set [1] worked out at 0.93 ± 0.05. This compound also came in with an AUCt in data set [2] (iv, 1 mg/kg) of 263 ± 21 ng·h/mL. The AUCt in data set [2] (po, 3 mg/kg) was found to be 626 ± 118 ng·h/mL. Moreover, the “Reversal of Scopolamine Induced amnesia” value in data set [3] is “≦1 mg/kg, p.o”.
In the case of `Cl.Cl.O=C(CN1CCOCC1)Nc1ccc(OC2CCN(C3CCC3)CC2)cc1F` [Example 3, N-[4-(1-Cyclobutylpiperidin-4-yloxy)-2-fluorophenyl]-2-(morpholin-4-yl)acetamide dihydrochloride], in the data set on Male Wister rats (3 mg/kg p.o.), the Inference entry is listed as “Active”; the “Exploration time mean ± S.E.M, Familiar object” value was 6.77 ± 0.44 s; the “Exploration time mean ± S.E.M, Novel object” value is 12.49 ± 1.59 s. Also, in data set [1], the Kp stood at 2.07 ± 0.07. The Ki (in general, a dissociation constant, usually derived from enzyme kinetics or from competition with a known ligand) in data set [4] is 14.9 nM. For the same compound, in data set [5] (iv, 1 mg/kg), the AUC(0-t) (usually exposure summed from dosing to a finite time, without extrapolation to infinity) came to 173 ± 60 ng·h/mL and the half-life (usually the time needed for the level to fall by half in the phase considered) was 33.6 ± 11.4 min. In data set [5] (po, 3 mg/kg), the AUC(0-t) was 174 ± 43 ng·h/mL, the highest level (Cmax) was 129 ± 34 ng/mL, the Tmax was determined as 25.2 ± 8.4 min and the bioavailability amounted to 35 ± 5%. Also, the half-life in data set [5] (po, 3 mg/kg) was 87.6 ± 45 min.
With `CC(=O)N(CCN1CCOCC1)c1ccc(OC2CCN(C3CCC3)CC2)cc1F` [Example 37, N-[4-(1-Cyclobutylpiperidin-4-yloxy)-2-fluorophenyl]-N-[2-(morpholin-4-yl)-ethyl] acetamide], in the data set with Male Wister rats (3 mg/kg p.o.), the Inference result was “Active”; the “Exploration time mean ± S.E.M, Familiar object” value stood at 5.53 ± 1.67 s; the “Exploration time mean ± S.E.M, Novel object” value was 14.18 ± 2.04 s. Further, the Kp in data set [1] worked out at 1.24 ± 0.18. Besides, the Ki in data set [4] is 9.73 nM. Besides, in data set [5] (iv, 1 mg/kg), the AUC(0-t) turned out to be 68 ± 2 ng·h/mL and the half-life was 198 ± 25.2 min. Besides, in data set [5] (po, 3 mg/kg), the AUC(0-t) came out at 64 ± 16 ng·h/mL, the peak level (Cmax) was 27 ± 11 ng/mL, the Tmax is 30 min and the bioavailability came to 32 ± 8%. Besides, the half-life in data set [5] (po, 3 mg/kg) was 215 ± 25.8 min.
